{
  "source": "ChEMBL document CHEMBL1833915",
  "about": "“Discovery of potent, orally bioavailable phthalazinone bradykinin B1 receptor antagonists” (J Med Chem, 2011)",
  "key": {"B1 bradykinin receptor [1]": {"target": "T1, B1 bradykinin receptor (Homo sapiens, UniProt P46663)", "T1 sequence (P46663 whole entry)": "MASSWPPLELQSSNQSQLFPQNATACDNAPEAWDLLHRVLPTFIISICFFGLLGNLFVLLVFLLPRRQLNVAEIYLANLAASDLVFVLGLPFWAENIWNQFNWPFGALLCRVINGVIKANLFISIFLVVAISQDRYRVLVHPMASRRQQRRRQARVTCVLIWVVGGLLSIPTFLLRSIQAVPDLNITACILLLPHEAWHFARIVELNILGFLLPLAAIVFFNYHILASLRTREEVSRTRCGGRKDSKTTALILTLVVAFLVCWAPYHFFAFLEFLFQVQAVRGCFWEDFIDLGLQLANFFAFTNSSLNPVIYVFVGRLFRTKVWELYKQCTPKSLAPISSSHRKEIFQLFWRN", "assay": "Antagonist activity at human B1 receptor", "assay_type": "functional"}, "[2]": {"assay": "Half life in Sprague-Dawley rat at 2 mg/kg, iv", "assay_type": "ADME, organism-based", "design": "dose 2 mg/kg, route intravenous", "details": "in vivo"}, "[3]": {"target": "Voltage-gated inwardly rectifying potassium channel KCNH2 (Homo sapiens, UniProt Q12809)", "sequence (Q12809 whole entry)": "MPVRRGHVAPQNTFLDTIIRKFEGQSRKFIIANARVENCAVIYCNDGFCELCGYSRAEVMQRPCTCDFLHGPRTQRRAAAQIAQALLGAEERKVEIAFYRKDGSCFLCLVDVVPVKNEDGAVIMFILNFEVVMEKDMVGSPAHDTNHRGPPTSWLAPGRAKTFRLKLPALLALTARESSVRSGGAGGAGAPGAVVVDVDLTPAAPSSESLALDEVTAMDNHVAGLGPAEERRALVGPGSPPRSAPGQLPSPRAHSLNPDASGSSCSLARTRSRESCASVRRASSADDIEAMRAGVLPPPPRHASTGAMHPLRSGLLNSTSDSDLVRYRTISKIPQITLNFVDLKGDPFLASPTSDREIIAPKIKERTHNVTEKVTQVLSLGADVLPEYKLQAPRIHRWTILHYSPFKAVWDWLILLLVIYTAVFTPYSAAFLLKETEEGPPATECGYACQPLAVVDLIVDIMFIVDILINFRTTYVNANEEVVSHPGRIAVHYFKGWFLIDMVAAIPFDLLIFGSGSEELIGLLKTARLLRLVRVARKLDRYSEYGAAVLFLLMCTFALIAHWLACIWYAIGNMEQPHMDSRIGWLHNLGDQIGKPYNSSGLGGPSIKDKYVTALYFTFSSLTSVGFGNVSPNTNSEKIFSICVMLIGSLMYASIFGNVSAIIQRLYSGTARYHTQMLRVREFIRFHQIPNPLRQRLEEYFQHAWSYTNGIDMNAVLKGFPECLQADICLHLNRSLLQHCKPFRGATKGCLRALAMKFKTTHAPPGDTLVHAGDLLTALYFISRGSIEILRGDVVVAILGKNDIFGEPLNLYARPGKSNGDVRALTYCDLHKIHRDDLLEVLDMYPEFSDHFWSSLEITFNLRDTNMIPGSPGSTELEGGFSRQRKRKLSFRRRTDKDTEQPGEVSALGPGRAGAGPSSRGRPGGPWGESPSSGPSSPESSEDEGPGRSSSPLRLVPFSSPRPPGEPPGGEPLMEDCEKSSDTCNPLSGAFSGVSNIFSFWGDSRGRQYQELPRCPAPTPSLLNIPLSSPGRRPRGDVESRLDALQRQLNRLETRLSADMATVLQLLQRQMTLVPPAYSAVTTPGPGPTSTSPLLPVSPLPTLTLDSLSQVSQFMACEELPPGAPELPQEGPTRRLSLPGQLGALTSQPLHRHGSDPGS", "assay": "Inhibition of human hERG at 1 uM"}, "[4]": {"assay": "Volume of distribution at steady state in Sprague-Dawley rat at 2 mg/kg, iv", "assay_type": "ADME, organism-based", "design": "dose 2 mg/kg, route intravenous", "details": "in vivo, read-out: Vdss"}, "[5]": {"target": "Potassium voltage-gated channel subfamily A member 5 (Homo sapiens) (UniProt P22460)", "sequence (P22460 whole entry)": "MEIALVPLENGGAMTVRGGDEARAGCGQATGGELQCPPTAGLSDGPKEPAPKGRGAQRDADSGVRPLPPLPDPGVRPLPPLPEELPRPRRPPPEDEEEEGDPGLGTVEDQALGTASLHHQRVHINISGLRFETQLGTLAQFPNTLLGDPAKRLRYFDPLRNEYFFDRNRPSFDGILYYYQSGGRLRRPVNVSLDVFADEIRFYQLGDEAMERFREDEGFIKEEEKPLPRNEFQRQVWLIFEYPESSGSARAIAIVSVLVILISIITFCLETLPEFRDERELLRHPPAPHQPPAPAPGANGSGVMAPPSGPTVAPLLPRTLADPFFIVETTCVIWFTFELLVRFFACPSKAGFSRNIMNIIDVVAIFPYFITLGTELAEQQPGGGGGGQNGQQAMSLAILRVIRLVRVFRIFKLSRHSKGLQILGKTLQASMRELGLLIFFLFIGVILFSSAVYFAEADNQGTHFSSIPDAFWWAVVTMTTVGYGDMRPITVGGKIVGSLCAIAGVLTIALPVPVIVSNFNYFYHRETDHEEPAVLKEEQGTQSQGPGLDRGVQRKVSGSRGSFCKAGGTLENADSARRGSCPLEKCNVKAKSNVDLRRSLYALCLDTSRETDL", "assay": "Activity at Kv1.5 ion channel at 1 uM"}, "[6]": {"assay": "Fraction unbound in rabbit plasma", "assay_type": "ADME, cell-free, Oryctolagus cuniculus"}, "[7]": {"assay": "Clearance in Sprague-Dawley rat at 2 mg/kg, iv", "assay_type": "ADME, organism-based", "design": "dose 2 mg/kg, route intravenous", "details": "in vivo"}, "Oryctolagus cuniculus [8]": {"test_system": "Oryctolagus cuniculus", "assay": "Antihypertensive activity in sc dosed rabbit assessed as reduction in DAK-induced hypotension"}, "B1 bradykinin receptor [9]": {"target": "T2, B1 bradykinin receptor (Oryctolagus cuniculus, UniProt P48748)", "T2 sequence (P48748 whole entry)": "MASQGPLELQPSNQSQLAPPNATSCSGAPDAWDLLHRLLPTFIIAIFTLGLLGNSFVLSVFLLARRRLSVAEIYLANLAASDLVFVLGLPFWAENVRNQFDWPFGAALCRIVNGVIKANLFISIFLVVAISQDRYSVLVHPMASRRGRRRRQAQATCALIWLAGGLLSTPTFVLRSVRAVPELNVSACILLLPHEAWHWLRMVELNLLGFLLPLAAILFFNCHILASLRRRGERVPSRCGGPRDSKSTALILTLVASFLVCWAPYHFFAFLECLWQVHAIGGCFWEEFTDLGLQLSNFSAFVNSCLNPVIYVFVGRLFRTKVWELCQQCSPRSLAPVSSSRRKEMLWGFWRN", "assay": "Inhibition of rabbit B1 receptor by cellular calcium flux assay", "assay_type": "functional"}, "[10]": {"assay": "Oral bioavailability in Sprague-Dawley rat at 5 mg/kg", "assay_type": "ADME, organism-based", "details": "in vivo"}, "Oryctolagus cuniculus [11]": {"test_system": "Oryctolagus cuniculus", "assay": "[…] activity in LPS treated rabbit assessed as reversal of DAK-induced hypotension at 0.003 to 1 mg/kg, sc", "assay_type": "functional, organism-based"}, "B1 bradykinin receptor [12]": {"target": "T1, B1 bradykinin receptor", "assay": "Antagonist activity at human B1 receptor expressed in CHO cells by aequorin-based calcium flux assay", "assay_type": "functional, cell-based"}, "Oryctolagus cuniculus [13]": {"test_system": "Oryctolagus cuniculus", "assay": "[…] activity in LPS treated rabbit assessed as reversal of DAK-induced hypotension at 0.03 to 3 mg/kg, sc", "assay_type": "functional, organism-based"}, "[14]": {"target": "Sodium channel protein type 5 subunit alpha (Homo sapiens, UniProt Q14524)", "sequence (Q14524 whole entry)": "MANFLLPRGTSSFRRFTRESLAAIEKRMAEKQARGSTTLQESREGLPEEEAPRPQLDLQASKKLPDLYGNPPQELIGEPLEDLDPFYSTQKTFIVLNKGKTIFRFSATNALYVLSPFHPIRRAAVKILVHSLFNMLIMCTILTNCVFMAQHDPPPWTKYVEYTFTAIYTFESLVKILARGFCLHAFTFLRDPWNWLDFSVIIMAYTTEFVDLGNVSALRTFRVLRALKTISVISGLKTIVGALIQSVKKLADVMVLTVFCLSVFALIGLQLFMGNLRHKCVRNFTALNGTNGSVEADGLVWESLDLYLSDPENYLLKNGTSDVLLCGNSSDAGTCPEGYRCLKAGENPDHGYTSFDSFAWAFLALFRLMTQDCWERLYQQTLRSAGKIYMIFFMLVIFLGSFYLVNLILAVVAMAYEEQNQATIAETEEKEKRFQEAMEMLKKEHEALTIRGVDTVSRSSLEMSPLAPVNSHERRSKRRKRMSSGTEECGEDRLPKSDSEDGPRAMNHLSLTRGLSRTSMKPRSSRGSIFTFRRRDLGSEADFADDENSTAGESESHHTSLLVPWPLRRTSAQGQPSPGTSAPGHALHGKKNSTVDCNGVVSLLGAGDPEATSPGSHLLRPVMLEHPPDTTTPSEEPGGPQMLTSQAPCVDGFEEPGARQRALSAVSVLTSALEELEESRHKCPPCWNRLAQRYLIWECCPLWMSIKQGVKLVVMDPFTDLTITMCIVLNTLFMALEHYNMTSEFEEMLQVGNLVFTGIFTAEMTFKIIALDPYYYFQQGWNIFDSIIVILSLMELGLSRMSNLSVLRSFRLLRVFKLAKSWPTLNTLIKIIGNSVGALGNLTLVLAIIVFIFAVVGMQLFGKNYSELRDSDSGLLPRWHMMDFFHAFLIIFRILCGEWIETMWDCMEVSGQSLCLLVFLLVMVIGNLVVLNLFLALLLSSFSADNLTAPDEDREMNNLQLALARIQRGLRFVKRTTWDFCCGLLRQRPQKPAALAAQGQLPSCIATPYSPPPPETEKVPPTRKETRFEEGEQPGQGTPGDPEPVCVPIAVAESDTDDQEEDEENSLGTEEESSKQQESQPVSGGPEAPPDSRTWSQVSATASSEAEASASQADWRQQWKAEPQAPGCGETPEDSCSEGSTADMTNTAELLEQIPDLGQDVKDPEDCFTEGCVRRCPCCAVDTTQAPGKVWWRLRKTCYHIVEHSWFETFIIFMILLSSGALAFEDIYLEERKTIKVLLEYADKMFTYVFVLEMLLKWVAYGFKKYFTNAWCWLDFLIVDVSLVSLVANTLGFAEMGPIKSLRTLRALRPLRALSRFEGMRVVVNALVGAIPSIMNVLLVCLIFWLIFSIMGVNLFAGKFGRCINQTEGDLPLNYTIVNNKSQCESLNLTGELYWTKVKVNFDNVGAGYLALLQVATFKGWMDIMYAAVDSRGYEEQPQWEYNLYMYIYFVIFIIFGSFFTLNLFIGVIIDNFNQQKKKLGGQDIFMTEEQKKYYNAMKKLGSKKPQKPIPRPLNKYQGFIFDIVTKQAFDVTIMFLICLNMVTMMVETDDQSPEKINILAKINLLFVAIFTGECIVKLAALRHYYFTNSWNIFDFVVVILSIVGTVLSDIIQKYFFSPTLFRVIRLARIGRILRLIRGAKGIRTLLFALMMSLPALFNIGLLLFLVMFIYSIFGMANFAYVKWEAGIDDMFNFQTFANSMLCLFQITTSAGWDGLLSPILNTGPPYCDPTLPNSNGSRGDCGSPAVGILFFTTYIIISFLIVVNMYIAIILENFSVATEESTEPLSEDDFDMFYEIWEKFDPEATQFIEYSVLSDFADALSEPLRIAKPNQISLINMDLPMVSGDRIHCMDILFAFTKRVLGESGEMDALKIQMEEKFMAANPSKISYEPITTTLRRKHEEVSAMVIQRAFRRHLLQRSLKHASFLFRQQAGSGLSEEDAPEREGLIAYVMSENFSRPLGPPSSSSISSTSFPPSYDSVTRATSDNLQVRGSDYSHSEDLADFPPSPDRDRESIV", "assay": "Activity at Nav1.5 ion channel at 1 uM"}, "B1 bradykinin receptor [15]": {"target": "T1, B1 bradykinin receptor", "assay": "Antagonist activity at human B1 receptor by cell-based assay", "assay_type": "functional"}, "[16]": {"assay": "Clearance in Sprague-Dawley rat", "assay_type": "ADME, organism-based", "details": "in vivo"}, "[17]": {"assay": "Oral bioavailability in Sprague-Dawley rat", "assay_type": "ADME, organism-based", "details": "in vivo"}, "[18]": {"assay": "Volume of distribution at steady state in dog at 1 mg/kg, iv", "assay_type": "ADME, organism-based, Canis lupus familiaris", "design": "dose 1 mg/kg, route intravenous", "details": "in vivo, read-out: Vdss"}, "[19]": {"assay": "Oral bioavailability in dog at 1 mg/kg", "assay_type": "ADME, organism-based, Canis lupus familiaris", "details": "in vivo"}, "[20]": {"assay": "Clearance in dog at 1 mg/kg, iv", "assay_type": "ADME, organism-based, Canis lupus familiaris", "design": "dose 1 mg/kg, route intravenous", "details": "in vivo"}, "[21]": {"assay": "Half life in dog at 1 mg/kg, iv", "assay_type": "ADME, organism-based, Canis lupus familiaris", "design": "dose 1 mg/kg, route intravenous", "details": "in vivo"}},
  "note": "Active and inactive are the calls of the source. The calls are words filed in the database; no cut-off is given here.",
  "data": [
    {"smiles": "CCc1nn(-c2ccc(C(=O)N[C@@H]3CCCc4cc(CN5CCCCC5)ccc43)cc2)c(=O)c2ccccc12", "values": [
      {"measurement": "Ki", "setting": "B1 bradykinin receptor [1]", "value": 29, "unit": "nM"}
    ]},
    {"smiles": "O=C(N[C@@H]1CCCc2cc(CN3CCCCC3)ccc21)c1ccc(-n2nc(-c3ccccc3)c3ccccc3c2=O)cc1", "values": [
      {"measurement": "Ki", "setting": "B1 bradykinin receptor [1]", "value": 418, "unit": "nM"}
    ]},
    {"smiles": "Cc1nn(-c2ccc(C(=O)N[C@@H]3CCCc4cc(CN5CCCCC5)ccc43)cn2)c(=O)c2c(F)cccc12", "values": [
      {"measurement": "half-life", "setting": "[2]", "value": 3.3, "unit": "h"},
      {"measurement": "Activity", "setting": "[3]", "value": "Not Active"},
      {"measurement": "Vd", "setting": "[4]", "value": 6.45, "unit": "L/kg"},
      {"measurement": "Activity", "setting": "[5]", "value": "inactive"},
      {"measurement": "fraction unbound", "setting": "[6]", "value": 0.24},
      {"measurement": "clearance", "setting": "[7]", "value": 23.5, "unit": "mL/min/kg"},
      {"measurement": "IC50", "setting": "Oryctolagus cuniculus [8]", "value": 2.5, "unit": "nM"},
      {"measurement": "IC50", "setting": "B1 bradykinin receptor [9]", "value": 0.6, "unit": "nM"},
      {"measurement": "bioavailability", "setting": "[10]", "value": 61, "unit": "%"},
      {"measurement": "Activity", "setting": "Oryctolagus cuniculus [11]", "value": "Active"},
      {"measurement": "Ki", "setting": "B1 bradykinin receptor [1]", "value": 0.6, "unit": "nM"},
      {"measurement": "IC50", "setting": "B1 bradykinin receptor [12]", "value": 0.09, "unit": "nM"},
      {"measurement": "Activity", "setting": "Oryctolagus cuniculus [13]", "value": "Active"},
      {"measurement": "Activity", "setting": "[14]", "value": "Not Active"}
    ]},
    {"smiles": "Cc1nn(-c2ccc(C(=O)N[C@@H]3CCCc4cc(CN5CCCCC5)ccc43)cn2)c(=O)c2c(F)ccc(F)c12", "values": [
      {"measurement": "IC50", "setting": "B1 bradykinin receptor [9]", "value": 2.2, "unit": "nM"},
      {"measurement": "Ki", "setting": "B1 bradykinin receptor [1]", "value": 0.6, "unit": "nM"},
      {"measurement": "IC50", "setting": "B1 bradykinin receptor [12]", "value": 0.3, "unit": "nM"}
    ]},
    {"smiles": "Cc1nn(-c2cccc(C(=O)N[C@@H]3CCCc4cc(CN5CCCCC5)ccc43)c2)c(=O)c2ccccc12", "values": [
      {"measurement": "Ki", "setting": "B1 bradykinin receptor [1]", "value": 6370, "unit": "nM"}
    ]},
    {"smiles": "O=C(Cc1ccc(C(=O)N[C@@H]2CCCc3cc(CN4CCCCC4)ccc32)cc1)c1ccccc1", "values": [
      {"measurement": "Ki", "setting": "B1 bradykinin receptor [1]", "value": 296, "unit": "nM"}
    ]},
    {"smiles": "O=C(CCCCC(=O)c1ccccc1)N[C@@H]1CCCc2cc(CN3CCCCC3)ccc21", "values": [
      {"measurement": "IC50", "setting": "B1 bradykinin receptor [15]", "value": 1370, "unit": "nM"},
      {"measurement": "Ki", "setting": "B1 bradykinin receptor [1]", "value": 1680, "unit": "nM"}
    ]},
    {"smiles": "O=C(N[C@@H]1CCCc2cc(CN3CCCCC3)ccc21)c1cccc(-c2coc3ccccc3c2=O)c1", "values": [
      {"measurement": "Ki", "setting": "B1 bradykinin receptor [1]", "value": 64, "unit": "nM"}
    ]},
    {"smiles": "Cc1ccc(S(=O)(=O)N2CCNC(=O)[C@H]2CC(=O)N[C@@H]2CCCc3cc(CN4CCCCC4)ccc32)cc1", "values": [
      {"measurement": "clearance", "setting": "[16]", "value": 123, "unit": "mL/min/kg"},
      {"measurement": "bioavailability", "setting": "[17]", "value": 6, "unit": "%"},
      {"measurement": "IC50", "setting": "B1 bradykinin receptor [9]", "value": 4.1, "unit": "nM"}
    ]},
    {"smiles": "Cc1nn(-c2ccc(C(=O)N[C@@H]3CCCc4cc(CN5CCCCC5)ccc43)cn2)c(=O)c2c(Cl)cccc12", "values": [
      {"measurement": "Activity", "setting": "[3]", "value": "Not Active"},
      {"measurement": "Activity", "setting": "[5]", "value": "inactive"},
      {"measurement": "Activity", "setting": "[14]", "value": "Not Active"}
    ]},
    {"smiles": "Cc1nn(-c2ccc(C(=O)N[C@@H]3CCCc4cc(CN5CCCCC5)ccc43)cc2)c(=O)c2c(Cl)cccc12", "values": [
      {"measurement": "half-life", "setting": "[2]", "value": 10.4, "unit": "h"},
      {"measurement": "Vd", "setting": "[18]", "value": 10.6, "unit": "L/kg"},
      {"measurement": "Vd", "setting": "[4]", "value": 7.85, "unit": "L/kg"},
      {"measurement": "bioavailability", "setting": "[19]", "value": 60, "unit": "%"},
      {"measurement": "clearance", "setting": "[20]", "value": 19, "unit": "mL/min/kg"},
      {"measurement": "half-life", "setting": "[21]", "value": 8.9, "unit": "h"},
      {"measurement": "clearance", "setting": "[7]", "value": 11.2, "unit": "mL/min/kg"},
      {"measurement": "IC50", "setting": "B1 bradykinin receptor [9]", "value": 21.4, "unit": "nM"},
      {"measurement": "bioavailability", "setting": "[10]", "value": 90, "unit": "%"},
      {"measurement": "Ki", "setting": "B1 bradykinin receptor [1]", "value": 0.9, "unit": "nM"},
      {"measurement": "IC50", "setting": "B1 bradykinin receptor [12]", "value": 1, "unit": "nM"}
    ]},
    {"smiles": "O=C(N[C@@H]1CCCc2cc(CN3CCCCC3)ccc21)c1cccc(-n2cnc3ccccc3c2=O)c1", "values": [
      {"measurement": "Ki", "setting": "B1 bradykinin receptor [1]", "value": "> 10000", "unit": "nM"}
    ]},
    {"smiles": "Cc1nn(-c2ccc(C(=O)N[C@@H]3CCCc4cc(CN5CCCCC5)ccc43)cc2)c(=O)c2ccccc12", "values": [
      {"measurement": "half-life", "setting": "[2]", "value": 6.1, "unit": "h"},
      {"measurement": "Vd", "setting": "[4]", "value": 8.09, "unit": "L/kg"},
      {"measurement": "clearance", "setting": "[7]", "value": 15, "unit": "mL/min/kg"},
      {"measurement": "bioavailability", "setting": "[10]", "value": 51, "unit": "%"},
      {"measurement": "Ki", "setting": "B1 bradykinin receptor [1]", "value": 35, "unit": "nM"}
    ]},
    {"smiles": "O=C(N[C@@H]1CCCc2cc(CN3CCCCC3)ccc21)c1ccc(-n2cnc3ccccc3c2=O)cc1", "values": [
      {"measurement": "Ki", "setting": "B1 bradykinin receptor [1]", "value": 614, "unit": "nM"}
    ]},
    {"smiles": "Cc1nn(-c2ccc(C(=O)N[C@@H]3CCCc4cc(CN5CCCCC5)ccc43)cc2)c(=O)c2c(F)ccc(F)c12", "values": [
      {"measurement": "Ki", "setting": "B1 bradykinin receptor [1]", "value": 3.5, "unit": "nM"}
    ]},
    {"smiles": "Cc1nn(-c2ccc(C(=O)N[C@@H]3CCCc4cc(CN5CCCCC5)ccc43)cc2)c(=O)c2c(F)cccc12", "values": [
      {"measurement": "Ki", "setting": "B1 bradykinin receptor [1]", "value": 1.9, "unit": "nM"}
    ]}
  ]
}
